Data as given in US9688691B2, “Macrocyclic quinazole derivatives and their use as MTKI” (Janssen Pharmaceutica NV, priority 2004, dated 2017).

Experiments:
Format in all cases: biochemical
[1] = biological target: Fyn human (Homo sapiens, UniProt P06241); assay: Kinase profiling, glass-fiber filter technology: Fyn; conditions: test concentration of 10^−6 M; read-out: Fyn inhibition score
Procedure: (§1) The in vitro inhibition of a panel of kinases was assessed using the glass-fiber filter technology as described by Davies, S. P. et al., Biochem J. (2000), 351; p. 95-105.
(§2) In the glass-fiber filter technology the activity of the kinase of interest is measured using an appropriate substrate that is incubated with the aforementioned kinase protein in the presence of (^33P) radiolabeled ATP. (^33P) Phosporylation of the substrate is subsequently measured as radioactivity bound on a glassfiber-filter.
(§3) All kinases are pre-diluted to a 10× working concentration prior to addition into the assay. The composition of the dilution buffer for each kinase is detailed below.
(§4) All substrates are dissolved and diluted to working stocks in de-ionised water.
(§5) In a final reaction volume of 25 μl, Fyn human (5-10 mU) is incubated with 50 mM Tris pH 7.5, 0.1 mM EGTA, 0.1 mM Na3VO4, 250 μM KVEKIGEGTYGVVYK (Cdc2 peptide), 10 mM MgAcetate and [γ-^33P-ATP] (specific activity approx. 500 cpm/pmol, concentration as required). The reaction is initiated by the addition of the MgATP mix. After incubation for 40 minutes at room temperature, the reaction is stopped by the addition of 5 μl of a 3% phosphoric acid solution. 10 μl of the reaction is then spotted onto a P30 filtermat and washed three times for 5 minutes in 75 mM phosphoric acid and once in methanol prior to drying and scintillation counting.

[2] = biological target: EGFR (h) (Homo sapiens, UniProt P00533); assay: Kinase profiling, glass-fiber filter technology: EGFR; conditions: test concentration of 10^−6 M; read-out: EGFR inhibition score
Chain of EGFR (h) (P00533 25-1210): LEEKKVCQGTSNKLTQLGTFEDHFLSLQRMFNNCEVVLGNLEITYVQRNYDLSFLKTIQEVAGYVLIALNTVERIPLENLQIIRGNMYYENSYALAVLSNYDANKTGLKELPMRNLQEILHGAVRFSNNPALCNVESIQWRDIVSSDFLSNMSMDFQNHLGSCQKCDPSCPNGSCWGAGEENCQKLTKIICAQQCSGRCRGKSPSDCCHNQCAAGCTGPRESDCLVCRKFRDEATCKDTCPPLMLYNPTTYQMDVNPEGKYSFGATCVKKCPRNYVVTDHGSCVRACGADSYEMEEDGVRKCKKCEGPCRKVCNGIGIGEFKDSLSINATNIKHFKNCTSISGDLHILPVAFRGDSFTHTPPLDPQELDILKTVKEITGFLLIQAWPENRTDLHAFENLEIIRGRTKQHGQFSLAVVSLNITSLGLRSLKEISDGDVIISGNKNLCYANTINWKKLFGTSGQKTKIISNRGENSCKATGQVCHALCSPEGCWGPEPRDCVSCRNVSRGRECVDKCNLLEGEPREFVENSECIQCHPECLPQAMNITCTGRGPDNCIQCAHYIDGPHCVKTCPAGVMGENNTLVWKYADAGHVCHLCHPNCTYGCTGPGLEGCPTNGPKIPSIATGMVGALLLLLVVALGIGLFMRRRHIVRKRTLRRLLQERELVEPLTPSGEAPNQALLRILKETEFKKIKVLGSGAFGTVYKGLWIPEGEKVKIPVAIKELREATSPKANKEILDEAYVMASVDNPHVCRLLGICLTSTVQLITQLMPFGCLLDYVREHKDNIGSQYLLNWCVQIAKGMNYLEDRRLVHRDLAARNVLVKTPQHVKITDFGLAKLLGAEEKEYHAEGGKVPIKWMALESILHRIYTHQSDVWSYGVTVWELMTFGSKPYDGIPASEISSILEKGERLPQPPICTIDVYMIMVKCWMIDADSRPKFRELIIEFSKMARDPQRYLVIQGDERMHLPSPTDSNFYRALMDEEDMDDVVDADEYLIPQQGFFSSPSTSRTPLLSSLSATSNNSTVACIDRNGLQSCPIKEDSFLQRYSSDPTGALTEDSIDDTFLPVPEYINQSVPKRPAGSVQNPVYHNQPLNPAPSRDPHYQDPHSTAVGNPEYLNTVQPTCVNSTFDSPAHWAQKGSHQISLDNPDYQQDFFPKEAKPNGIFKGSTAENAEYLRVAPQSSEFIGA
Procedure: as §1, §2, §3, §4
as §5, with “μl, EGFR (h)” for “μl, Fyn human”, “with 8” for “with 50”, “mM MOPS” for “mM Tris”, “pH 7.0, 0.2 mM EDTA, 10 mM MnCl2,” for “pH 7.5,”, “0.1 mg/ml poly(Glu, Tyr) 4:1,” for “0.1 mM EGTA, 0.1 mM Na3VO4, 250 μM KVEKIGEGTYGVVYK (Cdc2 peptide),”, “a Filtermat A” for “a P30 filtermat”

[3] = biological target: Ret human (Homo sapiens, UniProt P07949); assay: Kinase profiling, glass-fiber filter technology: Ret; conditions: test concentration of 10^−6 M; read-out: Ret inhibition score
Chain of Ret human (P07949 29-1114): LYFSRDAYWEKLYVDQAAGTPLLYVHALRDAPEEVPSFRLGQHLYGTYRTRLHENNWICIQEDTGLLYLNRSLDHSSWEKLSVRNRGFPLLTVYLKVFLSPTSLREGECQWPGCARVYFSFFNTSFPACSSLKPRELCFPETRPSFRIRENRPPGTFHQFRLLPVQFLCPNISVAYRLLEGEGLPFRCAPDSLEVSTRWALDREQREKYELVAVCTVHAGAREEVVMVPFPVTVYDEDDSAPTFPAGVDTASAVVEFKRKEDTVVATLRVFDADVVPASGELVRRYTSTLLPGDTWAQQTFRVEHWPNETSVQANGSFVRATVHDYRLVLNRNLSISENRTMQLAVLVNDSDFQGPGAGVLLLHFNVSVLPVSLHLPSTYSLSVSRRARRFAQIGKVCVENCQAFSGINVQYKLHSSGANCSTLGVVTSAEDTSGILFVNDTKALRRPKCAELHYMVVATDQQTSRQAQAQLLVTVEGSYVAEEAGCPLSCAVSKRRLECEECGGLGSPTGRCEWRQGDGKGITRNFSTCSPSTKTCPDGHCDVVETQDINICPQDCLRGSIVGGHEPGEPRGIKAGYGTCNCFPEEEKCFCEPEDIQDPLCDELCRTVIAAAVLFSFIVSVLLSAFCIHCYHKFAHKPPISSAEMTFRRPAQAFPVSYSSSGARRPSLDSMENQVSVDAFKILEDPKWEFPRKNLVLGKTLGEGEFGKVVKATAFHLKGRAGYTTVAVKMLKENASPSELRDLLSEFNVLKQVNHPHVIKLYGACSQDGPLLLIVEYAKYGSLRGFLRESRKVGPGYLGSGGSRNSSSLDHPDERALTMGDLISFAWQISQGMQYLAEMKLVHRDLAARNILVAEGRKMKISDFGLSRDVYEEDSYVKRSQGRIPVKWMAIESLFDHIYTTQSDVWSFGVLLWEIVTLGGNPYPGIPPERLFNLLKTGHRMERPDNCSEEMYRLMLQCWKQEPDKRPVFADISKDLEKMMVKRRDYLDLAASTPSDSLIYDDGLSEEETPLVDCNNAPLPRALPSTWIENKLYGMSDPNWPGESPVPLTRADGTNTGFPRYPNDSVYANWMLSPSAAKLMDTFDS
Procedure: as §1, §2, §3, §4
as §5, with “μl, Ret” for “μl, Fyn”, “with 8” for “with 50”, “mM MOPS” for “mM Tris”, “pH 7.0, 0.2” for “pH 7.5, 0.1”, “mM EDTA,” for “mM EGTA, 0.1 mM Na3VO4,”, “μM KKKSPGEYVNIEFG,” for “μM KVEKIGEGTYGVVYK (Cdc2 peptide),”

[4] = biological target: Abl (h) (Homo sapiens, UniProt P00519); assay: Kinase profiling, glass-fiber filter technology: Abl; conditions: test concentration of 10^−6 M; read-out: Abl inhibition score
Procedure: as §1, §2, §3, §4
as §5, with “Abl (h)” for “Fyn human”, “with 8 mM MOPS pH 7.0, 0.2 mM EDTA,” for “with”, “50” for “50 mM Tris pH 7.5, 0.1 mM EGTA, 0.1 mM Na3VO4, 250”, “EAIYAAPFAKKK,” for “KVEKIGEGTYGVVYK (Cdc2 peptide),”

[5] = biological target: ErbB4 (h) (Homo sapiens, UniProt Q15303); assay: Kinase profiling, glass-fiber filter technology: ErbB4; conditions: test concentration of 10^−6 M; read-out: ErbB4 inhibition score
Procedure: as §1, §2, §3, §4
(§6) In a final reaction volume of 25 μl, ErbB4 (h) (5-10 mU) is incubated with 8 mM MOPS pH 7.0, 0.2 mM EDTA, 10 mM MnCl2, 0.1 mg/ml poly(Glu, Tyr) 4:1, 10 mM MgAcetate and [γ-33P-ATP] (specific activity approx. 500 cpm/pmol, concentration as required). The reaction is initiated by the addition of the MgATP mix. After incubation for 40 minutes at room temperature, the reaction is stopped by the addition of 5 μl of a 3% phosphoric acid solution. 10 μl of the reaction is then spotted onto a Filtermat A and washed three times for 5 minutes in 75 mM phosphoric acid and once in methanol prior to drying and scintillation counting.

[6] = biological target: Yes (h) (Homo sapiens, UniProt P07947); assay: Kinase profiling, glass-fiber filter technology: Yes; conditions: test concentration of 10^−6 M; read-out: Yes inhibition score
Chain of Yes (h) (P07947 whole entry): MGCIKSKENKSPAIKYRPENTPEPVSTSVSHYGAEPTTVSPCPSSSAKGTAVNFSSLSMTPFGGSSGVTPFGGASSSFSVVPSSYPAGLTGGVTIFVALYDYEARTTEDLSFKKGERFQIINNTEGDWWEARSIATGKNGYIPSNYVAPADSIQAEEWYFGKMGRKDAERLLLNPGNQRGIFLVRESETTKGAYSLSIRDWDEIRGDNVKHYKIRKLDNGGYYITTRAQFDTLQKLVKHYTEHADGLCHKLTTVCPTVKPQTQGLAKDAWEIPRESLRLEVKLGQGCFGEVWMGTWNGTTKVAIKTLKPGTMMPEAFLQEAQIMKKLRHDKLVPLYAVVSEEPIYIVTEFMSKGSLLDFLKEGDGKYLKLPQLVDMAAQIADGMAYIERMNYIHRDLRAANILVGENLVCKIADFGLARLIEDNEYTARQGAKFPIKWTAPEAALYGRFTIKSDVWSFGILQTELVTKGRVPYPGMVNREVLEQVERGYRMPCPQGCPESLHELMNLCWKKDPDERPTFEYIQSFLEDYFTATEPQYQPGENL
Procedure: as §1, §2, §3, §4
as §6, with “Yes” for “ErbB4”, “EDTA,” for “EDTA, 10 mM MnCl2,”, “[γ-^33P-ATP]” for “[γ-33P-ATP]”

[7] = biological target: cSRC (h) (Homo sapiens, UniProt P12931); assay: Kinase profiling, glass-fiber filter technology: cSRC; conditions: test concentration of 10^−6 M; read-out: cSRC inhibition score
Chain of cSRC (h) (P12931 whole entry): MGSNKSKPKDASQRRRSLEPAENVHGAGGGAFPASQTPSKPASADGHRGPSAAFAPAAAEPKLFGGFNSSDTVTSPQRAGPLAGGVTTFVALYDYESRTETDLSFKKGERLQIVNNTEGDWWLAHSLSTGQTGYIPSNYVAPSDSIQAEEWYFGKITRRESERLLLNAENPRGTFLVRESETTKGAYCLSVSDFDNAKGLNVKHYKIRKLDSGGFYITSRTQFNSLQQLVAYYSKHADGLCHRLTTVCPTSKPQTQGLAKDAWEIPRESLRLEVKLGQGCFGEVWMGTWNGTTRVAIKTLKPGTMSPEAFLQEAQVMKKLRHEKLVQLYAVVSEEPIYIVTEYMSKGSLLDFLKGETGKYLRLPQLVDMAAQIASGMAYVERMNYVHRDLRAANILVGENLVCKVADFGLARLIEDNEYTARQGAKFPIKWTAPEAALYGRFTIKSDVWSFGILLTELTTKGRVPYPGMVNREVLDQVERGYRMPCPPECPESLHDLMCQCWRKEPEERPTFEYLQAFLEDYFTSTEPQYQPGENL
Procedure: as §1, §2, §3, §4
(§7) In a final reaction volume of 25 μl, cSRC (h) (5-10 mU) is incubated with 8 mM MOPS pH 7.0, 0.2 mM EDTA, 250 μM KVEKIGEGTYGVVYK (Cdc2 peptide), 10 mM MgAcetate and [γ-^33P-ATP] (specific activity approx. 500 cpm/pmol, concentration as required). The reaction is initiated by the addition of the MgATP mix. After incubation for 40 minutes at room temperature, the reaction is stopped by the addition of 5 μl of a 3% phosphoric acid solution.
(§8) 10 μl of the reaction is then spotted onto a P30 filtermat and washed three times for 5 minutes in 75 mM phosphoric acid and once in methanol prior to drying and scintillation counting.

[8] = biological target: Lck (h) (Homo sapiens, UniProt P06239); assay: Kinase profiling, glass-fiber filter technology: Lck; conditions: test concentration of 10^−6 M; read-out: Lck inhibition score
Chain of Lck (h) (P06239 whole entry): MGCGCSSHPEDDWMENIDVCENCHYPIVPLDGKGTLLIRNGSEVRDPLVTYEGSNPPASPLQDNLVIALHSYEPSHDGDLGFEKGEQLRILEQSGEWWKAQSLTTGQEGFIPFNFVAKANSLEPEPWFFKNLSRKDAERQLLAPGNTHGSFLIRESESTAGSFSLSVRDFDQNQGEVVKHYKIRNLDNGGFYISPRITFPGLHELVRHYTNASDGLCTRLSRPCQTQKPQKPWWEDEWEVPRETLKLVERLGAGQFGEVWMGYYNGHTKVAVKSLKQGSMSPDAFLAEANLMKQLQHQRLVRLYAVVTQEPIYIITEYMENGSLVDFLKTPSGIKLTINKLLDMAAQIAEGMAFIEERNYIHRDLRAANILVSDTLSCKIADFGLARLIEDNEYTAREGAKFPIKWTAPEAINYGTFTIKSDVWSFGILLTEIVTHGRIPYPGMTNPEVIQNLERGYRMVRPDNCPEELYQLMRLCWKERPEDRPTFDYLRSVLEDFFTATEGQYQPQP
Procedure: as §1, §2, §3, §4
as §7, with “Lck” for “cSRC”, “50” for “8”, “Tris” for “MOPS”, “7.5, 0.1” for “7.0, 0.2”, “EGTA, 0.1 mM Na3VO4,” for “EDTA,”
as §8

[9] = biological target: Lyn (h) (Homo sapiens, UniProt P07948); assay: Kinase profiling, glass-fiber filter technology: Lyn; conditions: test concentration of 10^−6 M; read-out: Lyn inhibition score
Chain of Lyn (h) (P07948 whole entry): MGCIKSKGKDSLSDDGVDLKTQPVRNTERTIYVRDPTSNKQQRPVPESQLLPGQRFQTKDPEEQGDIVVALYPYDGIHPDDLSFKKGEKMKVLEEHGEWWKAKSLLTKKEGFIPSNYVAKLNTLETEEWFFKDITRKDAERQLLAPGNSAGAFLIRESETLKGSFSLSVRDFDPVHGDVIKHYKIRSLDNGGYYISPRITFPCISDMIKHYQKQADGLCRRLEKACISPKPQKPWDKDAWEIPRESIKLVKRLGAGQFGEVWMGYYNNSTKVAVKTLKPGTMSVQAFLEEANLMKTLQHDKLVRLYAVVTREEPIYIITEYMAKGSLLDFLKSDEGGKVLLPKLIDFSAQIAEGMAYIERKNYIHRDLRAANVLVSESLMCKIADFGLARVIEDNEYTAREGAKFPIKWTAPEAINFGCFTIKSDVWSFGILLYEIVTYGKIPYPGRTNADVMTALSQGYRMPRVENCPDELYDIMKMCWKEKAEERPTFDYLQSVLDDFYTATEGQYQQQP
Procedure: as §1, §2, §3, §4
(§9) In a final reaction volume of 25 μl, Lyn (h) (5-10 mU) is incubated with 50 mM Tris pH 7.5, 0.1 mM EGTA, 0.1 mM Na3VO4, 0.1% β-mercaptoethanol, 0.1 mg/ml poly(Glu, Tyr) 4:1, 10 mM MgAcetate and [γ-^33P-ATP] (specific activity approx. 500 cpm/pmol, concentration as required). The reaction is initiated by the addition of the MgATP mix. After incubation for 40 minutes at room temperature, the reaction is stopped by the addition of 5 μl of a 3% phosphoric acid solution. 10 μl of the reaction is then spotted onto a Filtermat A and washed three times for 5 minutes in 75 mM phosphoric acid and once in methanol prior to drying and scintillation counting.

[10] = biological target: Blk (m) (Mus musculus, UniProt P16277); assay: Kinase profiling, glass-fiber filter technology: Blk; conditions: test concentration of 10^−6 M; read-out: Blkl inhibition score
Procedure: as §1, §2, §3, §4
as §9, with “Blk (m)” for “Lyn (h)”, “[γ-33P-ATP]” for “[γ-^33P-ATP]”

Chain of Fyn human (P06241 whole entry): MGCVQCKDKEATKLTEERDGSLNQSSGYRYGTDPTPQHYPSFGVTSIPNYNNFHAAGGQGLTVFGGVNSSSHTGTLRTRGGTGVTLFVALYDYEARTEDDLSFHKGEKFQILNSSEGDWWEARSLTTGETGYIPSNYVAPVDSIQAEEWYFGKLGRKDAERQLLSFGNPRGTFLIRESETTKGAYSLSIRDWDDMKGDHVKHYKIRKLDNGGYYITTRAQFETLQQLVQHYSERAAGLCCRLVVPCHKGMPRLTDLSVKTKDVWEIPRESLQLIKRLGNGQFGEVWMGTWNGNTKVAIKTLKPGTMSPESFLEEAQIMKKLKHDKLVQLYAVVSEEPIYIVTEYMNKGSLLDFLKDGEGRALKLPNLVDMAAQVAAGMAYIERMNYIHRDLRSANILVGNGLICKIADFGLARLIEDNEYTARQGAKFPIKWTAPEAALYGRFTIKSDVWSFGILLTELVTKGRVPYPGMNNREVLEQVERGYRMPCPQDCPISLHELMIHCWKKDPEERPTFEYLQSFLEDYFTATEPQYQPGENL

Row | Structure (SMILES) | inhibition at 1 µM [1] [%] | inhibition at 1 µM [2] [%] | inhibition at 1 µM [3] [%] | inhibition at 1 µM [4] [%] | inhibition at 1 µM [5] [%] | inhibition at 1 µM [6] [%] | inhibition at 1 µM [7] [%] | inhibition at 1 µM [8] [%] | inhibition at 1 µM [9] [%] | inhibition at 1 µM [10] [%]
1 | COc1cc2ncnc3c2cc1OCCCNC(=O)[C@H](CC1CCCCC1)NC(=O)CCc1ccc(Cl)cc1N3 [Compound 8] | 60 to 80 | > 80 | > 80 | 10 to 30 | 60 to 80 | > 80 | > 80 | > 80 |  | 
2 | COc1cc2ncnc3c2cc1OCCN(CCN1CCOCC1)C(=O)CNC(=O)Cc1ccc(Cl)cc1N3 [Compound 1] |  | > 80 |  |  |  | 30 to 60 | 60 to 80 | 10 to 30 | 30 to 60 | 30 to 60
